A short description of series [1]: Stability test of 52Mn-labeled complexes in rat serum (radio-TLC). The class given is in vitro ADME. The conditions noted are these: room temperature, up to 7 days. The procedure: Stability test of [[^52Mn]Mn(3,9-PC2A)] and [[^52Mn]Mn(3,9-OPC2A)] in rat serum. 100 µL aqueous solution of each radiolabeled complex (~7.5 MBq) was mixed with 100 uL of rat serum, and incubated at room temperature. Aliquots were taken and analyzed at the beginning and after 1, 2, 3, and 20 h, and 2, 3, and 7 days later, by the radio-TLC method, as explained mentioned above.

Series [2] can be described thus: EDTA challenge of 52Mn-labeled complexes (transchelation). It is filed as physicochemical. The conditions noted are these: 0.2 M H4EDTA (pH 7.4), room temperature, 7 days. The protocol:
EDTA challenge of [[^52Mn]Mn(3,9-PC2A)] and [[^52Mn]Mn(3,9-OPC2A)]. 50 µL aqueous solution of each radiolabeled complex (~3.75 MBq) was incubated with 50 µL of 0.2 M EDTA (pH 7.4) solution at room temperature. Aliquots were taken and analyzed by the radio-TLC method, as mentioned above, at the beginning and after 1, 2, 3, and 20 h, and 2, 3, and 7 days incubation time.

A short description of series [3]: Octanol/water partition coefficient (logP) of 52Mn-labeled complexes. It is filed as physicochemical. The procedure: Determination of logP values of the [[^52Mn]Mn(3,9-PC2A)] and [[^52Mn]Mn(3,9-OPC2A)] chelates. 100 µL aqueous solution of each radiolabeled complex (~7.5 MBq) was added to 100 µL of octanol. The mixture was shaken with a vortex shaker (5 min, 1000 rpm) and centrifuged (5 min, 10,000 rpm). A total of 3 × 20 µL from the octanol and 3 × 20 µL from the water were pipetted into test tube, respectively. The radioactivity of the samples was measured with a gamma detector.

Series [4] in a line: Metal challenge of 52Mn-labeled complexes (transmetalation). The class given is physicochemical. Conditions: ZnCl2, CuCl2, MgCl2, CaCl2 mixture, room temperature, 7 days. The procedure:
Metal challenge of [[^52Mn]Mn(3,9-PC2A)] and [[^52Mn]Mn(3,9-OPC2A)]. 49 µL aqueous solution of each radiolabeled complex (~3.75 MBq) was incubated with a 1:1 mixture of 0.1 mM ZnCl2 and 0.01 mM CuCl2 (1 µL), and a 1:1 mixture of 1.02 mM MgCl2 and 2.28 mM CaCl2 (50 µL) at room temperature. Samples were taken from the mixtures at the beginning and after 1, 2, 3, and 20 h, and 2, 3, and 7 days later. For the analysis of the samples, the above-mentioned radio-TLC method was applied.

Take `O=C([O-])CN1CCOCCN(CC(=O)[O-])Cc2cccc(n2)C1.[52Mn+2]` [[[^52Mn]Mn(3,9-OPC2A)]]: in series [1], the “stability in rat serum” value is “remained intact even after seven days”. In series [2], the “transchelation in H4EDTA challenge” value was “slower and was not completed after seven days”. In series [3], this compound had a logP of −2.56. Moreover, the “complex dissociated in metal challenge” value in series [4] is “about 30%”.
Regarding `O=C([O-])CN1CCNCCN(CC(=O)[O-])Cc2cccc(n2)C1.[52Mn+2]` [[[^52Mn]Mn(3,9-PC2A)]], the “stability in rat serum” value in series [1] is “remained intact even after seven days”. The “transchelation in H4EDTA challenge” value in series [2] is reported as “transchelation was complete”. The compound further yielded a logP in series [3] of −2.51. In addition, in series [4], the “inertness in metal challenge” value was “stayed intact”.

Usually logP stands for the decadic logarithm of the partition coefficient of the neutral form, usually between octanol and water.

Values taken from publication PMC8778187, “A New Oxygen Containing Pyclen-Type Ligand as a Manganese(II) Binder for MRI and ^52Mn PET Applications: Equilibrium, Kinetic, Relaxometric, Structural and Radiochemical Studies” (Molecules, 2022).
